Data published in US10676406B2, “Hopanoids producing bacteria and related biofertilizers, compositions, methods and systems” (CALIFORNIA INSTITUTE OF TECHNOLOGY, priority 2015, dated 2020).

Legend:
B. diazoefficiens WT = experiment: MIC of polymyxin B by E-test; type: cell-based, Bradyrhizobium diazoefficiens; conditions: E-test strips 0.064-1024 μg/mL, 30° C., 7 days
Procedure: (§1) Disk diffusion assays were used to quantify growth under oxidative, acidic and detergent stresses. For this, 4 day-old cultures of B. diazoefficiens strains grown in yeast extract-mannitol (YM) medium were washed and adjusted to an OD600 of 1.2 ml bacterial suspensions were then mixed with 100 ml of 42° C. pre-warmed YM soft agar (0.8% agar) and 5 ml portions of this mixture were poured on solid YM. Filter disks were placed at the center of the plates, and 5 μl of 5.5 M H2O2, 2 M HCl or SDS (10% w/v), were deposited on the disks. The diameters of growth inhibition areas were measured after incubation at 30° C. for 5 days.
(§2) The MIC of polymyxin B was determined by the E-test method using disk diffusion assay as described above. Strips containing a gradient of polymyxin B ranging from 0.064-1024 μg/mL (Biomérieux, Marcy-l'étoile, France) were placed in the center of plates, which were incubated at 30° C. for 7 days before recording the results. The experiment was done in triplicates.

B. diazoefficiens ΔhpnH = experiment: MIC of polymyxin B by E-test; type: cell-based, Bradyrhizobium diazoefficiens
Procedure: as §1, §2

## polymyxin B
B. diazoefficiens WT
  MIC for polymyxin B: 512 µg/mL
B. diazoefficiens ΔhpnH; E-test strips 0.064-1024 μg/mL, 30° C., 7 days
  MIC for polymyxin B: 48 µg/mL
B. diazoefficiens ΔhpnH; ΔhpnH versus WT
  fold lower MIC for polymyxin B in ΔhpnH than WT: 10 fold
